Measured values published in patent US8377876B2, “Pediatric amino acid solution for parenteral nutrition” (Fresenius Kabi Deutschland GmbH, priority 2006, dated 2013).
Peptide text beside a SMILES is read from it.

Test: Thermal sterilization of 200 g/l alanyl-glutamine solution; degradation products determined after sterilization
Type: physicochemical
Details: sterilization at 121° C., 124° C. and 127° C., pH 5 to 6, constant F0 12-12.5
Protocol: The sterilization temperature is in this connection preferably ≧124° C. and particularly preferably ≧127° C. The pH is preferably between 5 and 6.5. It is possible to reduce the holding times for the thermal sterilization on use of higher temperatures. Under the preferred conditions, distinctly smaller amounts of degradation products are found in the sterilized product (example 3).
A solution of 200 g/l alanyl-glutamine was sterilized at temperatures of 121° C., 124° C. and 127° C. The pH was varied between pH 5, pH 5.5 and pH 6. […] The F0 value describes the sterilization efficiency and corresponds to the holding time at 121.11° C. For sterilization at higher temperatures, the holding times were reduced to maintain a constant F0 value. After the sterilization, the amounts of the degradation products of the dipeptide alanyl-glutamine, cyclo-alanyl-glutamine and L-pyro-alanyl-glutamine were determined. Lower values for these degradation products are a direct indication of the stability of the dipeptide during the sterilization.

values for the degradation products (stability of the dipeptide during sterilization): fell at higher temperature
Compound: C[C@H](N)C(=O)N[C@@H](CCC(N)=O)C(=O)O [alanyl-glutamine, L-Alanyl-L-glutamine] (H-Ala-Gln-OH)
